The target in assay [1] is GTPγS-bound human HRasG12V / human c-Raf-1 Ras binding domain (RBD) (Homo sapiens (Human), UniProt P01112, G12V). In words: Ras-Raf binding inhibition ELISA. The protocol: The in vitro Ras-Raf binding inhibitory activity of the compound of the present invention was evaluated by an ELISA method (Enzyme-Linked ImmunoSorbent Assay) described below.
Ras and Raf used upon the evaluation were purified and activated by the following method.
Using a pGEX6P-1 vector (GE Healthcare), human HRasG12V (full length, 1-189 amino acid residues) and human c-Raf-1 Ras binding domain (RBD) (50-131 amino acid residues) were each allowed to express as a fusion body with glutathione S-transferase (GST) in E. coli.
GST-HRasG12V-expressing cells were subjected to ultrasonication in a buffer {50 mM Tris-HCl pH 7.4, 150 mM NaCl, 5 mM MgCl2, 1 mM ethylenediaminetetraacetic acid (EDTA), 1 mM dithiothreitol (DTT), 10% glycerol, and 1% Triton-X100}, and were then centrifuged at 100,000×g for 30 minutes, so as to collect the supernatant as a Ras protein fraction. HRasG12V in the supernatant was immobilized on a glutathione-agarose resin, and GST was then cleaved with PreScission Protease (GE Healthcare) for purification. The obtained HRasG12V was mixed with guanosine 5′-O-[gamma-thio]triphosphate trisodium salt (GTPTS) of 1000 times higher concentration at 30° C. for 1 hour, and thereafter, 20 mM MgCl2 (final concentration) was added to stop the reaction and collect the GTPgS-loaded HRasG12V as a product.
On the other hand, GST-c-Raf-1 RBD-expressing cells were subjected to ultrasonication in the same buffer as described above, and were then centrifuged at 100,000×g for 30 minutes, so as to collected the supernatant as a GST-c-Raf-1 RBD protein fraction.
The in vitro Ras-Raf binding inhibitory activity of the compound of the present invention was evaluated by an ELISA method described below.
GST-c-Raf-1 RBD diluted with a Ras-Raf binding buffer (50 mM Tris-HCl pH7.4, 150 mM NaCl, 5 mM MgCl2, 1 mM EDTA, and 1% Triton-X100) was added to each well of a glutathione-coated 96-well plate (Thermo Fisher Scientific.), and was incubated at 30° C. for 1 hour, to immobilize Raf on the well. The unbound free Raf was eliminated by washing the well with the Ras-Raf binding buffer three times. Subsequently, GTPTS-bound HRasG12V diluted with the Ras-Raf binding buffer and each compound solution (final DMSO concentration: 10%) were applied to each well, and the resulting mixture was then incubated at 30° C. for 1 hour, so that Ras and Raf were allowed to bind to each other. Thereafter, the plate was washed with the Ras-Raf binding buffer twice, and was then subjected to a blocking treatment at room temperature for 20 minutes, using TBS-Tween {10 mM Tris-HCl pH 7.4, 150 mM NaCl, and 0.05% (w/v) Tween-20}-5% (w/v) bovine serum albumin (BSA). After that, an anti-HRas antibody (C-20, Santa Cruz) or an anti-HRas antibody (259, Santa Cruz), which had been 1000 times diluted with TBS-Tween-5% BSA, was added to the reaction mixture, and incubated at room temperature for 1 hours. After the treatment with the primary antibody, the plate was washed with TBS-Tween-5% BSA three times, and a horseradish peroxidase-labeled secondary antibody against rabbit immunoglobulin G (GE Healthcare) of 1000 times diluted with TBS-Tween-5% BSA, was added to the plate, followed by incubation at room temperature for 1 hour. After the treatment with the secondary antibody, the plate was washed with TBS-Tween-5% BSA three times, and a substrate solution (TMB) was then added to the plate, followed by incubation at room temperature for 15 minutes for coloration. Finally, 2 M H2SO4 was added to stop color development (coloration reaction kit: Nacalai Tesque). The absorbance at 450 nm (OD450) was measured, so that the color intensity was quantified. Inhibition by the test compound was determined according to the following equation: […]
IC50 (*) in which the anti-HRas antibody (259, Santa Cruz) was used
In general terms: In an ELISA, binding on a coated surface is turned into a signal by an enzyme label.

The subject of assay [2] is acute lymphoblastic leukemia cells CCRF-CEM (K-RasG12D). In words: Cell growth inhibition, suspension cells CCRF-CEM. The class given is cell-based. The conditions noted are these: Homo sapiens, 72 hours; for inhibition at 1 µM: read-out: CCRF-CEM (KRasG12D) % inhibition at 1 μM; for inhibition at 10 µM: read-out: CCRF-CEM (KRasG12D) % inhibition at 10 μM (**). The protocol: (§1) The cell growth inhibitory activity of the compound of the present invention on human culture cells having active-type mutation in Ras was evaluated by the below-mentioned method using suspension cancer cells {acute lymphoblastic leukemia cells CCRF-CEM (K-RasG12D), promyelocytic leukemia cells HL60 (N-RasQ61L), acute lymphoblastic leukemia cells MOLT4 (N-RasG12C), and small cell lung cancer cells SHP77 (K-RasG12V)} and adherent cancer cells {large bowel cancer cells SW480 (K-RasG12V) and large bowel cancer cell SW620 (K-RasG12V)}.
(§2) (Case of suspension cells) The cells suspended in a medium containing 0.5% (v/v) fetal bovine serum (FBS) and each compound solution (final DMSO concentration: 1%) were seeded on a 96-well plate (2 to 4×10^4 cells/well), and the resulting mixture was then cultured at 37° C. in the presence of 5% CO2 for 72 hours.
(§3) Thereafter, the number of viable cells was measured using Cell Counting Reagent (Nacalai Tesque) in accordance with the manufacturer's instructions. Inhibition by the test compound was determined according to the following equation: […]

The test system of assay [3] is promyelocytic leukemia cells HL60 (N-RasQ61L). In words: Cell growth inhibition, suspension cells HL60. It is filed as cell-based. The conditions noted are these: Homo sapiens, HL-60, 72 hours; for inhibition at 10 µM: read-out: HL-60 (NRasQ61L) % inhibition at 10 μM (***); for inhibition at 1 µM: read-out: HL-60 (NRasQ61L) % inhibition at 1 μM; for inhibition at 3.2 µM: read-out: HL-60 (NRasQ61L) % inhibition at 3.2 μM (****). How it is done: as §1, §2, §3

The subject of assay [4] is large bowel cancer cell SW620 (K-RasG12V). In words: Cell growth inhibition, adherent cells SW620. The conditions noted are these: Homo sapiens, SW-620; 3.2 μM (***), 72 hours; read-out: SW620 (KRasG12V) % inhibition at 3.2 μM (***). The class given is cell-based. The protocol: as §1
(Case of adherent cells) The cells suspended in a medium containing 10% FBS (1 to 2×10^4 cells/well) were seeded on a 96-well plate, and were then cultured at 37° C. in the presence of […]. Thereafter, the medium was exchanged with a medium containing […], to which each compound solution (final DMSO concentration: […]) had been added, and the cells were then cultured at 37° C. in the presence of […] for 72 hours.
as §3

The mark [5] stands for this setting: anti-HRas antibody C-20, read-out: ELISA IC50 (μM): 1st Ab_C-20.
[6] abbreviates: anti-HRas antibody 259 (*), read-out: ELISA IC50 (μM): 1st Ab_259 (*).

Structures are written as SMILES. Read-outs that look alike come from different tables or passages of the source.

What is called IC50 is the concentration that gives 50% inhibition. Usually inhibition stands for the percentage by which the read-out fell short of the control.

Sequence of GTPγS-bound human HRasG12V / human c-Raf-1 Ras binding domain (RBD) (P01112 whole entry G12V, the tested form may be a part): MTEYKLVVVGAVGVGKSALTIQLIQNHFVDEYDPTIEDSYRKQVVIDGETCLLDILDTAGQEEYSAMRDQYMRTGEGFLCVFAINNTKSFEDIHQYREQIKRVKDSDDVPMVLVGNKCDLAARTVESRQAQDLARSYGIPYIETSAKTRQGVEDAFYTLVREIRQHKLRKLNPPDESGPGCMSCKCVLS

For `CC(=O)N1/C(=C\c2ccc3cc(CO)ccc3n2)C(=O)c2ccccc21` [Example 33, (Z)-1-acetyl-2-((6-(hydroxymeth-yl)quinolin-2-yl)-methylene)indolin-3-one], the IC50 in assay [1] (setting [5]) was 3.1 µM. Further, in assay [2], the inhibition at 1 µM came out at 94%.
With `CC(=O)N1/C(=C\c2ccc3cc(CNC4CCS(=O)(=O)CC4)ccc3n2)C(=O)c2ccccc21` [Example 133], in assay [1] (setting [6]), the IC50 was found to be 1.8 µM. For the same compound, the inhibition at 10 µM in assay [3] was 99%; in assay [2], 80%.
For `CC(=O)N1/C(=C\c2ccc(OS(C)(=O)=O)cn2)C(=O)c2ccccc21` [Example 61, (Z)-6-((1-acetyl-3-oxoindolin-2-ylidene)methyl)-pyridin-3-yl methanesulfonate], the IC50 in assay [1] (setting [5]) came out at 2.7 µM. The inhibition at 1 µM in assay [2] turned out to be 35%.
As to `COCCN1CCN(C(=O)c2ccc3nc(/C=C4/C(=O)c5ccccc5N4C(C)=O)ccc3c2)CC1` [Example 116, (Z)-1-acetyl-2-((6-(4-(2-methoxy-ethyl)piperazine-1-carbonyl)quinolin-2-yl)methylene)-indolin-3-one], the inhibition at 10 µM in assay [2] stood at 98%.
On to `CC(=O)N1/C(=C\c2nc3cc(CNC4CCOCC4)ccc3s2)C(=O)c2ccccc21` [Example 132, (Z)-1-acetyl-2-((5-(((tetrahydro-2H-pyran-4-yl)-amino)methyl)-benzo[d]thiazol-2-yl)methylene)-indolin-3-one], for which the IC50 in assay [1] (setting [6]) stood at 1.2 µM. Further, the figures for the inhibition at 1 µM in assay [3] and in assay [2] were 42% and 38%, respectively.
As to `CC(=O)N1/C(=C\c2cc(-c3ccccc3-c3ccccc3)c3cc(CNC4CCOCC4)ccc3n2)C(=O)c2ccccc21` [Example 143, (Z)-2-((4-([1,1′-biphenyl]-2-yl)-6-(((tetrahydro-2H-pyran-4-yl)amino)-methyl)quinolin-2-yl)methylene)-1-acetylindolin-3-one], at 1 µM the inhibition in assay [1] was 44.3%. Besides, the IC50 in assay [1] (setting [5]) was found to be 0.6 µM. Moreover, the inhibition at 3.2 µM came to 97.2% in assay [3] and 79.3% in assay [4].
On to `CC(=O)N1/C(=C\c2ccc3cc(CN4CCS(=O)(=O)CC4)ccc3n2)C(=O)c2ccccc21` [Example 107, (Z)-1-acetyl-2-((6-((1,1-dioxido-thiomorpholino)-methyl)quinolin-2-yl)methylene)-indolin-3-one], for which, in assay [1] (setting [5]), the IC50 was 1.7 µM. Also, the inhibition at 10 µM in assay [3] came out at 82%; in assay [2], 81%.
Take `CC(=O)N1/C(=C\c2cc(-c3ccccc3-c3ccccc3)c3cc(C(N)=O)ccc3n2)C(=O)c2ccccc21` [Example 141, (Z)-4-([1,1′-biphenyl]-2-yl)-2-((1-acetyl-3-oxo-indolin-2-ylidene)-methyl)quinoline-6-carboxamide]: 1 µM produced 46.2% inhibition in assay [1]. Also, the IC50 in assay [1] (setting [5]) amounted to 1.2 µM. The inhibition at 3.2 µM in assay [3] is 94.6%; in assay [4], 91.3%.
Regarding `CC(=O)N1/C(=C\c2ccc3cc(CN4CCOCC4)ccc3n2)C(=O)c2ccccc21` [Example 35, (Z)-1-acetyl-2-((6-(morpholino-methyl)quinolin-2-yl)methylene)-indolin-3-one], the IC50 in assay [1] (setting [5]) amounted to 2.6 µM. Besides, the inhibition at 1 µM in assay [2] came to 40%.
Consider `CC(=O)N1/C(=C\c2ccc3cc(C(=O)N4CCC(N5CCOCC5)CC4)ccc3n2)C(=O)c2ccccc21` [Example 115, (Z)-1-acetyl-2-((6-(4-morpholino-piperidine-1-carbonyl)quinolin-2-yl)methylene)-indolin-3-one], for which the IC50 in assay [1] (setting [5]) turned out to be 11 µM. The inhibition at 10 µM in assay [2] came out at 98%.
Turning to `CC(=O)N1C(=Cc2cc(-c3ccc4c(c3)CCNC4=O)c3cc(C(=O)N4CCOCC4)ccc3n2)C(=O)c2ccccc21` (racemic) [Example 147, 6-(2-((1-acetyl-3-oxoindolin-2-ylidene)methyl)-6-(morpholine-4-carbonyl)quinolin-4-yl)-3,4-dihydro-isoquinolin-1(2H)-one], in assay [1], the inhibition at 1 µM is 66.1%. Moreover, the IC50 in assay [1] (setting [5]) turned out to be 0.5 µM. The inhibition at 3.2 µM is 59.1% in assay [3] and 92.2% in assay [4].
Turning to `CC(=O)N1/C(=C\c2ccc3cc(CN(C)C4CCOCC4)ccc3n2)C(=O)c2ccccc21` [Example 71, (Z)-1-acetyl-2-((6-((methyl(tetra-hydro-2H-pyran-4-yl)amino)meth-yl)quinolin-2-yl)-methylene)indolin-3-one], the IC50 in assay [1] (setting [5]) was 2.4 µM. The inhibition at 1 µM in assay [3] was 41%. Moreover, in assay [2], the inhibition at 10 µM turned out to be 82%.
With `CC(=O)N1/C(=C\c2ccc3cc(C(=O)N4CCS(=O)(=O)CC4)ccc3n2)C(=O)c2ccccc21` [Example 60, (Z)-1-acetyl-2-((6-(1,1-dioxido-thiomorpholine-4-carbonyl)quinolin-2-yl)methylene)-indolin-3-one], the IC50 in assay [1] (setting [5]) was 6 µM. In addition, the inhibition at 10 µM in assay [2] is 99%.
`CC(=O)N1/C(=C/c2nc(C(=O)N3CCOCC3)cs2)C(=O)c2ccccc21` [Example 55, (E)-1-acetyl-2-((4-(morpholine-4-carbonyl)thiazol-2-yl)methylene)-indolin-3-one]: the inhibition at 10 µM in assay [3] came out at 96%; in assay [2] it was 78%.

The values are drawn from US20250091994A1, “RAS/RAF BINDING INHIBITOR COMPOUND” (NATIONAL UNIVERSITY CORPORATION KOBE UNIVERSITY, priority 2021, published 2025).
